In US10246453B2, “Benzenesulfonamide compounds and their use as therapeutic agents” (Xenon Pharmaceuticals Inc., priority 2016, dated 2019):
Counter-ions that a name gives are not always drawn.

Assays:
NaV1.1 [1] = molecular target: T1, NaV1.1 (Homo sapiens (Human), UniProt P35498); assay: Sodium Influx Assay (Flux), NaV1.1; assay type: cell-based; conditions: Trex HEK293 cells, ANG2 dye; arithmetic mean
NaV1.5 = NaV1.5 (Homo sapiens (Human), UniProt Q14524); assay: Sodium Influx Assay (Flux), NaV1.5; conditions: read-out: Flux NaV1.5 IC50; Trex HEK293 cells, ANG2 dye; arithmetic mean
NaV1.6 [2] = molecular target: T2, NaV1.6 (Homo sapiens (Human), UniProt Q9UQD0); assay: Sodium Influx Assay (Flux), NaV1.6; conditions: read-out: Flux NaV1.6 IC50; Trex HEK293 cells, ANG2 dye; arithmetic mean
NaV1.6 [3] = molecular target: T2, NaV1.6; assay: Electrophysiological Assay (EP), patch voltage clamp, NaV1.6; assay type: cell-based; conditions: HEK-293 cells, whole-cell patch clamp, inactivated state; arithmetic mean
Text: Patch voltage clamp electrophysiology allows for the direct measurement and quantification of block of voltage-gated sodium channels (Nay's), and allows the determination of the time-and voltage-dependence of block which has been interpreted as differential binding to the resting, open, and inactivated states of the sodium channel (Hille, B., Journal of General Physiology (1977), 69: 497-515).
NaV1.1, NaV1.5 and NaV1.6 cDNAs (NM_001165964 (SCN1A), NM_000335 (SCN5A) and NM_014191 (SCN8A), respectively) were stably expressed in HEK-293 cells.
(§1) Sodium currents were measured using the patch clamp technique in the whole-cell configuration using either a PatchXpress automated voltage clamp or manually using an Axopatch 200B (Axon Instruments) or Model 2400 (A-M systems) amplifier.
The manual voltage clamp protocol was as follows: Borosilicate glass micropipettes were fire-polished to a tip diameter yielding a resistance of 2-4 Mohms in the working solutions. […] In some studies, the external sodium was reduced by equimolar replacement with choline. Osmolarity in the CsF internal and NaCl external solutions was adjusted to 300 mOsm/kg and 310 mOsm/kg with glucose, respectively. All recordings were performed at ambient temperature in a bath chamber with a volume of 150 μL. Control sodium currents were measured in 0.5% DMSO. Controls and representative compounds of the invention were applied to the recording chamber through a 4-pinch or 8-pinch valve bath perfusion system manufactured by ALA Scientific Instruments.
Currents were recorded at 40 kHz sampling frequency, filtered at […], and stored using a Digidata-1322A analogue/digital interface with the pClamp software (Axon Instruments). Series resistance compensation was applied (60-80%). […] All statistics in this study are given as mean±SD.
The membrane potential was maintained at a voltage where inactivation of the channel is complete. The voltage is then stepped back to a very negative (Vhold=−150 mV) voltage for 20 ms and then a test pulse is applied to quantify the compound block. The 20 ms brief repolarization was long enough for compound-free channels to completely recover from fast inactivation, but the compound-bound channels recovered more slowly such that negligible recovery could occur during this interval. The percent decrease in sodium current following wash-on of compound was taken as the percent block of sodium channels.

NaV1.1 [4] = molecular target: T1, NaV1.1; assay: Electrophysiological Assay (EP), patch voltage clamp, NaV1.1; assay type: cell-based; conditions: HEK-293 cells, whole-cell patch clamp, inactivated state; arithmetic mean
Protocol: as §1
In some studies, the external sodium was reduced by equimolar replacement with choline. […] All recordings were performed at ambient temperature in a bath chamber with a volume of 150 μL. Control sodium currents were measured in 0.5% DMSO. Controls and representative compounds of the invention were applied to the recording chamber through a 4-pinch or 8-pinch valve bath perfusion system manufactured by ALA Scientific Instruments.
Series resistance compensation was applied (60-80%). […] All statistics in this study are given as mean±SD.
The membrane potential was maintained at a voltage where inactivation of the channel is complete. The voltage is then stepped back to a very negative (Vhold=−150 mV) voltage for 20 ms and then a test pulse is applied to quantify the compound block. […] The percent decrease in sodium current following wash-on of compound was taken as the percent block of sodium channels.

T2 sequence (Q9UQD0 whole entry): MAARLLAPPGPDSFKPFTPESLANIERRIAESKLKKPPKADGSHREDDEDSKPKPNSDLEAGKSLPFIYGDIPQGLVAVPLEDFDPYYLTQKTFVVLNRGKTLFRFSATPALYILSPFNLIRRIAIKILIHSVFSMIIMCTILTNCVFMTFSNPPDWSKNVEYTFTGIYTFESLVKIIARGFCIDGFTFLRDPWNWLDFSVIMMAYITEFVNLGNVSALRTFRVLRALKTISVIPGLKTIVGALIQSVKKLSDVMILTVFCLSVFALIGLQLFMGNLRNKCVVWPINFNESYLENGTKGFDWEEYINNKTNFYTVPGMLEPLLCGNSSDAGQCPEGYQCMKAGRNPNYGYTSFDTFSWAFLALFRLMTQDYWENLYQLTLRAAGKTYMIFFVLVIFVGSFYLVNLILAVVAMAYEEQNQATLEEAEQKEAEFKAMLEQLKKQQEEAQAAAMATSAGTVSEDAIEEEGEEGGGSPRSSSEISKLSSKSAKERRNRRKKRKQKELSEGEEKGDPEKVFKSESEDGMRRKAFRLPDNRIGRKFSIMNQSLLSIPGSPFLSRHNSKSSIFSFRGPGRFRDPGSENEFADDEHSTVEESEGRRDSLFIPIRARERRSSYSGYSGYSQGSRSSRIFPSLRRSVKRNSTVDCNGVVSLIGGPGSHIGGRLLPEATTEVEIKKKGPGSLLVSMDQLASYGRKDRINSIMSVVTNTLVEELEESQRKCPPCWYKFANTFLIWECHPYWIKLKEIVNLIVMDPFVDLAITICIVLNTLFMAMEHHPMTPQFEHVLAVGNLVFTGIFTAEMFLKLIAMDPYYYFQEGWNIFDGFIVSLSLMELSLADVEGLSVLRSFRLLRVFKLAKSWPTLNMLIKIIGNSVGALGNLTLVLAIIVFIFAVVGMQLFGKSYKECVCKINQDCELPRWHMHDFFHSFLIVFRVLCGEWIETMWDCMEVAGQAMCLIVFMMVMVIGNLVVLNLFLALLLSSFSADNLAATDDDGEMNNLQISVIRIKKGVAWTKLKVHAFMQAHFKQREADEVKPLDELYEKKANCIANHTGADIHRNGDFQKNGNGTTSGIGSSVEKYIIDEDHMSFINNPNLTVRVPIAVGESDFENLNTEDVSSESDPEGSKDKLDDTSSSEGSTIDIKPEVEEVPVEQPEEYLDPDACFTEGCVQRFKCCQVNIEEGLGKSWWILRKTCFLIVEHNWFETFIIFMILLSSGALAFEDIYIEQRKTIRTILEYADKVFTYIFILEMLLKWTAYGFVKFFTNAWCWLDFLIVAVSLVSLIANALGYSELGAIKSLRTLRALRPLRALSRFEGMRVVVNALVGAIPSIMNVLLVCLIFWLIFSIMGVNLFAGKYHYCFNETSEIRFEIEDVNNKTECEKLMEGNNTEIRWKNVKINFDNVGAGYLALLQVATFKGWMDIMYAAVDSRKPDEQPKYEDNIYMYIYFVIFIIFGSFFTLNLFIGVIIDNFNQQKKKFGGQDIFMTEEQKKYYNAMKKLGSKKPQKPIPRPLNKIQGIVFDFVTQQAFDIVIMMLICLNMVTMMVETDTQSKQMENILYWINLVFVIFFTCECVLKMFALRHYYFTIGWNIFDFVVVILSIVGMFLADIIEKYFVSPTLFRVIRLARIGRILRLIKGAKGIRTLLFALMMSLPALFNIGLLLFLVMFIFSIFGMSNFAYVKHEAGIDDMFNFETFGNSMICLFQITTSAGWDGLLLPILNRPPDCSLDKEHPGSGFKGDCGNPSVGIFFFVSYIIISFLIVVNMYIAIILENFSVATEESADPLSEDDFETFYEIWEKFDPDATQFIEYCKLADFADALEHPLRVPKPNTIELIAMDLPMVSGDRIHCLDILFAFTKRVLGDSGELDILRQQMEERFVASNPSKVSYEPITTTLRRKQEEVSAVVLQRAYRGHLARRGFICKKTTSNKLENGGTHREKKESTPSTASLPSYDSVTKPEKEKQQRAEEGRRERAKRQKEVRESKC
NaV1.5, sequence (Q14524 other isoform, or with tags, fused parts or gaps): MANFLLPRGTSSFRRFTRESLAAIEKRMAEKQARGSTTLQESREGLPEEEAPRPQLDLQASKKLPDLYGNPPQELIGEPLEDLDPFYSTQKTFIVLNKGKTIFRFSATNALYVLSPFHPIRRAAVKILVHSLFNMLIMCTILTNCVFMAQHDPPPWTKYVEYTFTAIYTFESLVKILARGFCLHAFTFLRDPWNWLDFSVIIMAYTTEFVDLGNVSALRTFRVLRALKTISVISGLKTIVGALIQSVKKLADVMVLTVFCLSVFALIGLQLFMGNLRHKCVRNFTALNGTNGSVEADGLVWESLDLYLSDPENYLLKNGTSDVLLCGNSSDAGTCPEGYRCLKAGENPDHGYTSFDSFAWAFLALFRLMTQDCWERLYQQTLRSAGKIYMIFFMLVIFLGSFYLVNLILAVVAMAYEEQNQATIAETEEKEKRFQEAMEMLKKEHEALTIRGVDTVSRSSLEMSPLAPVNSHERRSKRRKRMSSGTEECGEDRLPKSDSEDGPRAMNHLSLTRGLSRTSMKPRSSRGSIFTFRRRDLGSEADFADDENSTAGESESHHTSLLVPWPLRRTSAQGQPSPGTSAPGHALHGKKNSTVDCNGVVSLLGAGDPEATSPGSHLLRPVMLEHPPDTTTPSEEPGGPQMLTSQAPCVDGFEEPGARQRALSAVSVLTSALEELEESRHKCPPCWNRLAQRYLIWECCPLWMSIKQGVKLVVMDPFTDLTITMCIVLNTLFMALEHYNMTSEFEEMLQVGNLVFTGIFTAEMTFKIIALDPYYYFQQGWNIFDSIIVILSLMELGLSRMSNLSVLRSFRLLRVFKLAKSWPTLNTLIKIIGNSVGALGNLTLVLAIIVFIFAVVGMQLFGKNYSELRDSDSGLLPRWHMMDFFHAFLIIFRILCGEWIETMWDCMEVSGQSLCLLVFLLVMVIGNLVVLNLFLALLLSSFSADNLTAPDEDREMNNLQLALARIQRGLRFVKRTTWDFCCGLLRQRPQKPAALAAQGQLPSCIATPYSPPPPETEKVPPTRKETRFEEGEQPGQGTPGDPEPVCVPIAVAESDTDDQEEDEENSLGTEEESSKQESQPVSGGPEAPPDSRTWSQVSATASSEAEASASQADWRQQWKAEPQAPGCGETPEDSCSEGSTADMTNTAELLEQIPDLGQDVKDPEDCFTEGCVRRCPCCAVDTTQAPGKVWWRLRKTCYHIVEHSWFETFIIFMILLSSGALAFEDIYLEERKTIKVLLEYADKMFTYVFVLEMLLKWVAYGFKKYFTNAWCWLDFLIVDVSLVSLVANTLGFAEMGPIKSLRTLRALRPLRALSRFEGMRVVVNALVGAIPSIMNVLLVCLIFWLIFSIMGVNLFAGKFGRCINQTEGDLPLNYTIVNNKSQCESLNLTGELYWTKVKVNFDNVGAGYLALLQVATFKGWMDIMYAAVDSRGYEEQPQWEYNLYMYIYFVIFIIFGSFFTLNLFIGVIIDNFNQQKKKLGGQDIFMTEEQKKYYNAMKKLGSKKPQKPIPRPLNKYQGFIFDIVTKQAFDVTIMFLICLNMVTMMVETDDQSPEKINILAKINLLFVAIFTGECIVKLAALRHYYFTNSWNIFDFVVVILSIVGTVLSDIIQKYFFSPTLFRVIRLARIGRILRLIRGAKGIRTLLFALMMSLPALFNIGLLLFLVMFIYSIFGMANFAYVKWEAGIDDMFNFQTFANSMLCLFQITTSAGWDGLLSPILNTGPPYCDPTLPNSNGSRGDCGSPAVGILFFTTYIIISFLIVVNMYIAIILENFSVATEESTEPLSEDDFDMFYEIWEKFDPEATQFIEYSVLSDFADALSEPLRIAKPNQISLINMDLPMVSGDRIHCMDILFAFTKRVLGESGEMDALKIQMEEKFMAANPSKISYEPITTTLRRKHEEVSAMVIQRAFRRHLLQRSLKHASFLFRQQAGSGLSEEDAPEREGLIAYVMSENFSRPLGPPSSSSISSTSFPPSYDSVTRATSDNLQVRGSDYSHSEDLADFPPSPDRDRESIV

Row | SMILES | IC50 (NaV1.1 [1]) | IC50 (NaV1.5) | IC50 (NaV1.6 [2]) | IC50 (NaV1.6 [3]) | IC50 (NaV1.1 [4])
1 | C[C@H](c1ccccc1)N1CCC(Oc2ccc(S(=O)(=O)Nc3cscn3)cc2Cl)CC1 [Example 57, (R)-3-chloro-4-((1-(1-phenylethyl)piperidin-4-yl)oxy)-N-(thiazol-4-yl)benzenesulfonamide 2,2,2-trifluoroacetate] | 13700 nM | 5250 nM | 970 nM | 268 nM | > 10000 nM
2 | CC(C)(c1ccccc1)N1CCC(Oc2ccc(S(=O)(=O)Nc3nccs3)cc2Cl)CC1 [Example 59, 3-chloro-4-((1-(2-phenylpropan-2-yl)piperidin-4-yl)oxy)-N-(thiazol-2-yl)benzenesulfonamide 2,2,2-trifluoroacetate] | 7440 nM | 7440 nM | 255 nM | 92 nM | 9910 nM
3 | CC1(Nc2ccc(S(=O)(=O)Nc3nccs3)cc2Cl)CCN(Cc2ccccc2)C1 (centres unmarked) [Example 61, 4-((1-benzyl-3-methylpyrrolidin-3-yl)amino)-3-chloro-N-(thiazol-2-yl)benzenesulfonamide] | 6370 nM | 6960 nM | 176 nM | 137 nM | > 10000 nM
4 | CN(c1ccc(S(=O)(=O)Nc2cscn2)cc1Cl)[C@H]1CCN(C(C)(C)c2ccccc2)C1 [Example 62, (S)-3-chloro-4-(methyl(1-(2-phenylpropan-2-yl)pyrrolidin-3-yl)amino)-N-(thiazol-4-yl)benzenesulfonamide] | 4240 nM | 4530 nM | 536 nM | 150 nM | 6550 nM
5 | O=S(=O)(Nc1nccs1)c1ccc(OC2CCN(Cc3ccccn3)CC2)c(Cl)c1 [Example 65, 3-chloro-4-((1-(pyridin-2-ylmethyl)piperidin-4-yl)oxy)-N-(thiazol-2-yl)benzenesulfonamide] | > 30000 nM | 29700 nM | 552 nM | 839 nM | > 10000 nM
6 | CN(c1ccc(S(=O)(=O)Nc2ncns2)cc1Cl)[C@@H]1CCN(Cc2ccccc2)C1 [Example 68, (R)-4-((1-benzylpyrrolidin-3-yl)(methyl)amino)-3-chloro-N-(1,2,4-thiadiazol-5-yl)benzenesulfonamide 2,2,2-trifluoroacetate] | > 30000 nM | > 30000 nM | 1410 nM | 2920 nM | > 10000 nM
7 | O=S(=O)(Nc1nccs1)c1ccc(N[C@@H]2CCN(Cc3ccccc3)C2)c(Cl)c1 [Example 79, (R)-4-(1-benzylpyrrolidin-3-ylamino)-3-chloro-N-(thiazol-2-yl)benzenesulfonamide] | 6340 nM | > 30000 nM | 570 nM | 138 nM | > 10000 nM
8 | CN(c1ccc(S(=O)(=O)Nc2nccs2)cc1Cl)[C@H]1CCN(Cc2ccccc2)C1 [Example 80, (S)-4-((1-benzylpyrrolidin-3-yl)(methyl)amino)-3-chloro-N-(thiazol-2-yl)benzenesulfonamide] | 12200 nM | 29100 nM | 378 nM | 124 nM | > 10000 nM
9 | Cc1cccc(CN2CCC(Oc3ccc(S(=O)(=O)Nc4nccs4)cc3Cl)CC2)n1 [Example 82, 3-chloro-4-(1-((6-methylpyridin-2-yl)methyl)piperidin-4-yloxy)-N-(thiazol-2-yl)benzenesulfonamide] | > 30000 nM | > 30000 nM | 423 nM | 56 nM | > 10000 nM
10 | Cc1cccc(CN2CC[C@H](N(C)c3ccc(S(=O)(=O)Nc4ncns4)cc3Cl)C2)c1 [Example 83, (S)-3-chloro-4-(methyl(1-(3-methylbenzyl)pyrrolidin-3-yl)amino)-N-(1,2,4-thiadiazol-5-yl)benzenesulfonamide] | > 30000 nM | > 30000 nM | 29 nM | 36 nM | > 10000 nM
11 | O=S(=O)(Nc1nccs1)c1cc(Cl)c(N[C@H]2CCN(Cc3ccccc3)C2)cc1F [Example 87, (S)-4-(1-benzylpyrrolidin-3-ylamino)-5-chloro-2-fluoro-N-(thiazol-2-yl)benzenesulfonamide] | 5960 nM | 14300 nM | 744 nM | 393 nM | 7280 nM
12 | Cc1cccc(CN2CC[C@@H](Nc3cc(F)c(S(=O)(=O)Nc4nccs4)cc3Cl)C2)c1 [Example 88, (R)-5-chloro-2-fluoro-4-(1-(3-methylbenzyl)pyrrolidin-3-ylamino)-N-(thiazol-2-yl)benzenesulfonamide] | 1590 nM | 5910 nM | 381 nM | 39 nM | 1240 nM
13 | O=S(=O)(Nc1nccs1)c1cc(Cl)c(N[C@@H]2CCN(Cc3ccccc3)C2)cc1F [Example 89, (R)-4-(1-benzylpyrrolidin-3-ylamino)-5-chloro-2-fluoro-N-(thiazol-2-yl)benzenesulfonamide] | 2130 nM | 12000 nM | 501 nM | 91 nM | 2870 nM
14 | Cc1cccc(CN2CCC(Oc3ccc(S(=O)(=O)Nc4nccs4)cc3Cl)CC2)c1 [Example 92, 3-chloro-4-(1-(3-methylbenzyl)piperidin-4-yloxy)-N-(thiazol-2-yl)benzenesulfonamide] | 6400 nM | 3640 nM | 203 nM | 81 nM | 7530 nM
15 | O=S(=O)(Nc1ncns1)c1ccc(OC2CCN(Cc3ccccc3)CC2)c(Cl)c1 [Example 100, 4-(1-benzylpiperidin-4-yloxy)-3-chloro-N-(1,2,4-thiadiazol-5-yl)benzenesulfonamide 2,2,2-trifluoroacetate] | 30000 nM | > 30000 nM | 190 nM | 164 nM | > 10000 nM
16 | CN(c1cc(F)c(S(=O)(=O)Nc2cscn2)c(F)c1Cl)[C@H]1CCN(Cc2ccccc2)C1 [Example 102, (S)-4-((1-benzylpyrrolidin-3-yl)(methyl)amino)-3-chloro-2,6-difluoro-N-(thiazol-4-yl)benzenesulfonamide formate] | > 30000 nM | > 30000 nM | 703 nM | 152 nM | > 10000 nM
17 | Cc1cccc(CN2CC[C@H](N(C)c3cc(F)c(S(=O)(=O)Nc4cscn4)c(F)c3C)C2)n1 [Example 104, (S)-2,6-difluoro-3-methyl-4-(methyl(1-((6-methylpyridin-2-yl)methyl)pyrrolidin-3-yl)amino)-N-(thiazol-4-yl)benzenesulfonamide formate] | > 30000 nM | > 30000 nM | 26 nM | 11 nM | > 10000 nM
18 | O=S(=O)(Nc1cscn1)c1c(F)cc(OC2CCN(Cc3ccccc3)CC2)c(Cl)c1F [Example 105, 4-((1-benzylpiperidin-4-yl)oxy)-3-chloro-2,6-difluoro-N-(thiazol-4-yl)benzenesulfonamide formate] | 27600 nM | 17600 nM | 268 nM | 151 nM | > 10000 nM
19 | Cc1c(OC2CCN(Cc3ccccc3)CC2)cc(F)c(S(=O)(=O)Nc2cscn2)c1F [Example 106, 4-((1-benzylpiperidin-4-yl)oxy)-2,6-difluoro-3-methyl-N-(thiazol-4-yl)benzenesulfonamide formate] | 23200 nM | 20600 nM | 99 nM | 34 nM | > 10000 nM
